Reference: ChEMBL document CHEMBL1201862, “PubChem BioAssay data set” (2004)
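Growth conditions: 96-well plates. Treatment: test compound, 48 hours, 5 concentrations. Analysis: linear interpolation between bracketing concentrations; unreached endpoints set to highest concentration. The concentration for 50% growth inhibition is given as GI50.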 Active and inactive are the calls of the source. No stated cut-off is given here; in the data, active = GI50 up to about 1.1 µM and inactive = higher.

Columns and labels:
Experiment in all cases: inhibition of tumour cell growth, NCI panel, 48 h
[1] = tested on: SNB-19
[2] = tested on: M19-MEL
[3] = tested on: K562
[4] = tested on: NCI-H522
[5] = tested on: OVCAR-4
[6] = tested on: HCT-116
[7] = tested on: RPMI-8226
[8] = tested on: HOP-18
[9] = tested on: NCI-H23
[10] = tested on: SK-OV-3
[11] = tested on: OVCAR-8
[12] = tested on: UACC-257
[13] = tested on: KM12
[14] = tested on: SF-539
[15] = tested on: UACC-62
[16] = tested on: SK-MEL-2
[17] = tested on: HCT-15
[18] = tested on: IGROV-1
[19] = tested on: SF-268
[20] = tested on: MCF7
[21] = tested on: OVCAR-3
[22] = tested on: Malme-3M
[23] = tested on: NCI/ADR-RES
[24] = tested on: HCC 2998
[25] = tested on: NCI-H460
[26] = tested on: DMS-273
[27] = tested on: SNB-78
[28] = tested on: SF-295
[29] = tested on: A498
[30] = tested on: HT-29
[31] = tested on: EKVX
[32] = tested on: COLO 205
[33] = tested on: KM-20L2
[34] = tested on: HOP-92
[35] = tested on: NCI-H226
[36] = tested on: OVCAR-5
[37] = tested on: XF498
[38] = tested on: DMS-114
[39] = tested on: DLD-1
[40] = tested on: SK-MEL-5
[41] = tested on: SW-620
[42] = tested on: RXF 393
[43] = tested on: SK-MEL-28
[44] = tested on: UO-31
[45] = tested on: U-251
[46] = tested on: SN12C
[47] = tested on: CAKI-1
[48] = tested on: SNB-75
[49] = tested on: HOP-62
[50] = tested on: MOLT-4
[51] = tested on: HL-60
[52] = tested on: A549
[53] = tested on: CCRF-CEM
[54] = tested on: LOX IMVI

Measured: GI50

COc1ccc(C2COc3c(ccc(O)c3C)C2)cc1OC (centres undefined)
57.8 µM: [17]
inactive: [1] 143 µM | [2] 83 µM | [3] 59.6 µM | [4] 39.7 µM | [5] 89.3 µM | [6] 48.3 µM | [7] 17.7 µM | [8] 24.2 µM | [9] 67.8 µM | [10] > 187 µM | [11] 113 µM | [12] 149 µM | [13] 102 µM | [14] 106 µM | [15] 96.2 µM | [16] 69.7 µM | [18] 130 µM | [19] 106 µM | [20] 81.7 µM | [21] 70.1 µM | [22] 121 µM | [23] 110 µM | [24] 27.9 µM | [25] 62.7 µM | [26] 57.4 µM | [27] 157 µM | [28] 58.9 µM | [29] 11.2 µM | [30] 65.8 µM | [31] 136 µM | [32] 61.7 µM | [33] 91.6 µM | [34] 53.5 µM | [35] 57.5 µM | [36] 119 µM | [37] 22.9 µM | [38] 24.4 µM | [39] 42 µM | [40] 11.7 µM | [41] 81.3 µM | [42] 24 µM | [43] 121 µM | [44] 66.1 µM | [45] 64.6 µM | [46] 104 µM | [47] 112 µM | [48] 38.1 µM | [49] 163 µM | [50] 29.2 µM | [51] 21.6 µM | [52] 60.8 µM | [53] 40.7 µM | [54] 12.9 µM
